Source: US9969763B2, “1,2,3-triazole-tethered carbohydrate-di and tri lipidated cysteine conjugates useful as vaccine adjuvants and process for preparation thereof” (Council of Scientific and Industrial Research, priority 2015, dated 2018)
Where a SMILES comes first, the peptide text is derived from it. The star is where a group is joined. X1 = CCCCCCCCCCCCCCCC(=O)OCC(C*)OC(=O)CCCCCCCCCCCCCCC; Palmitoyl = CCCCCCCCCCCCCCCC(=O)*

How the values were obtained:
[1] = tested on: rat RBCs; assay type: cell-based; conditions: red cells of rat
Description: 2.2.7 Hemolytic assay: Different concentration of test compounds were tested with fixed volume concentration of rat RBCs. After incubation for 30 min the percentage of hemolysis was determined by comparing the absorbance (k=540 nm) of the supernatant with that of distilled water as positive control.

[2] = tested on: Splenocytes; assay: HBsAg stimulated splenocyte proliferation in immunized mice; assay type: in vivo, BALB/c mice; conditions: HBsAg antigen; conjugates 2-80 μg
Description: (§1) 1.2.1 Proliferation of immune cells: Splenocytes were seeded into 96 well flat bottom microtiter plates having 1×10^5 cells/well in complete RPMI-1640 medium (cat no. AT028-1L, Himedia). Plates were incubated at 37° C., with 5% CO2 incubator. After 48 h of incubation 20 μl of Triazolyl blue Tetrazolium Bromide (MTT) (cat no. M2128, Sigma-Aldrich. St. Louis, Mo.) solution (5 mg/mL) was added to each well, incubated for next 4 h. Untransformed MTT was removed from each well by aspirating the supernatant (180 μL)and replaced with DMSO (Sigma-Aldrich, St. Louis, Mo.). The absorbance was read at 630 nm after 15 min.
Vaccine was formulated with Hepatitis B antigen (HBsAg, cat. No HBS-870-c, ProspecBio, Israel))alone or with various adjuvants like Pam3CSK4 and their analogues. The adjuvanticity induced by each of the vaccine is determined by antibody titre, cytokine production and proliferation of immune cells.
(§2) Male BALB/c mice were immunized with different groups according to various concentrations of (conjugates)preferably 2 to 80 μg/dose, more preferably 6 to 50 μg/dose, most preferably 8 to 40 μg/dose, along with PBS and HBsAg antigen control. A booster dose was given on 14th day and sacrificed 2 weeks after booster.
2.2.1 Proliferation of immune cells: Splenocyte proliferation was measured by the same method as described in Example 13 except that HBsAg antigen. […]

[3] = tested on: extracellular markers CD4, CD8, CD80, CD86, CD40; assay: Immunophenotyping, staining for extracellular markers (flow cytometry); assay type: cell-based
Description: 2.2.5 Immunophenotyping—Staining for extracellular markers: Staining was as per the manufacturer's protocol and run on a BD FACSVerse flow cytometer (cat nos. 557596, 553047, 560016 and 553723; BD Biosciences, USA). Compensation was established using BD Biosciences compensation beads. Post acquisition flow cytometry analysis was performed using FACS Suite software and data were represent in the mean fluorescence intensity values.

[4] = target: T1, Human TLR-2 (Homo sapiens, UniProt O60603); assay: Human TLR-2 reporter gene assay (NF-κB induction, SEAP); assay type: cell-based; conditions: HEK-Blue hTLR2 cells, 24 h
T1 construct: host or cells: HEK-Blue hTLR2 cells (HEK293-derived reporter line)
T1 sequence (O60603 21-784): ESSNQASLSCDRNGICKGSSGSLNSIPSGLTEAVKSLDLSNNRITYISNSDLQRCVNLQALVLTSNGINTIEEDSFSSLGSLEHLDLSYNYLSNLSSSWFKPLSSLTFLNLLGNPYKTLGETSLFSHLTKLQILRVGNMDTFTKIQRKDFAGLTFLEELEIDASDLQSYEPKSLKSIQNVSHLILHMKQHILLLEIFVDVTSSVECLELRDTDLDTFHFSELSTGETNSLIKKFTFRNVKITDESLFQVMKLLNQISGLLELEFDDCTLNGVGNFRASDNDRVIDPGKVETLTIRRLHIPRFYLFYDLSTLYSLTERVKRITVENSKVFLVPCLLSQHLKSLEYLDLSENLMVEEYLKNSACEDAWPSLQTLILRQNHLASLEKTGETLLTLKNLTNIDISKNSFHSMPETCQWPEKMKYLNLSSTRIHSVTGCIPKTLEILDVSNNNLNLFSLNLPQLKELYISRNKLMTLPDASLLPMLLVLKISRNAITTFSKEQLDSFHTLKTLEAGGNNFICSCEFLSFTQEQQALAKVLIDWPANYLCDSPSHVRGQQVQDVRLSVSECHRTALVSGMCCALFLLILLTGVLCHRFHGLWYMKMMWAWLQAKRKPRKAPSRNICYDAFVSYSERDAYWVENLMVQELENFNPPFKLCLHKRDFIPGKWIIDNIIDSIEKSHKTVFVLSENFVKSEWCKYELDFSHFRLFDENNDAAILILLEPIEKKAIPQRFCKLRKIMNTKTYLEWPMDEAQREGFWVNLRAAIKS
Description: 2.2.4 Human TLR-2 reporter gene assays (NF-κB induction): The assay was performed as per the manufacturer's instructions. HEK-Blue™ hTLR2 cells (cat no. hkb-htlr2, Invivogen, USA, 25,000 cells per well) were harvested in HEK-Blue™ selection medium containing normocin treated with the compounds and the plate were incubated at 37° C. in 5% CO2 for 24 h. SEAP (secreted embryonic alkaline phosphatase) can be observed with naked eye and determined using a spectrophotometer at 620-655 nm.

[5] = tested on: Splenocytes; assay: OVA stimulated splenocyte proliferation (MTT) in immunized mice; assay type: in vivo, BALB/c mice; conditions: OVA antigen; mice immunized s.c., conjugates 2-80 μg, booster 14th day; MTT after 48 h
Description: (§3) 13.1 Preparation and immunization of the vaccine: Male BALB/c mice (Procured from laboratory animal facility of National Institute of Nutrition, Hyderabad, IAEC No. IICT/Bio/fox/PG/1/02/2013) were immunized subcutaneously with different groups according to various concentrations of conjugates covered in examples 1-12, preferably 2 to 80 μg/dose, more preferably 6 to 50 μg/dose, most preferably 8 to 40 μg/dose, along with PBS (car no. TS1006, Himedia)and antigen control. A booster dose was given on 14th day and sacrificed 2 weeks after booster.
as §1
All triazolyl adjuvant conjugates induced splenocyte proliferation responses at the dose of 2-80 μg.

[6] = tested on: OVA antigen; assay: Antibody titre against OVA antigen and isotypes (ELISA); assay type: in vivo, BALB/c mice; conditions: 28th day; for IgG titer: serum anti-OVA; for IgG1 titer / IgG 2a titer: serum, OVA immunized mice
Description: as §3
(§4) 1.2.2 Antibody titre against OVA antigen: From the immunized mice retro-orbital sampling or retro-orbital blood was collected on 14th and 28th day before sacrifice. Serum was separated by centrifugation at 12,500 rpm for 5 min. Transferred to a clean centrifuge tube and store at −80 until used. The plates were coated with OVA (1 μg/well) in carbonate buffer. Plates were incubated at 4° C., overnight. They were then washed 3 times with PBS/Tween, and non-specific binding sites were blocked by adding 200 μl of blocking solution. Plates were incubated at room temperature for 1 h. Then 3 times wash is done, diluted standards and samples to desired concentrations in blocking solution were added to the plates. Incubate at 37° C. for 1 h or at 4° C., overnight. Plates were washed 3 times with PBS/Tween. Avidin-Horseradish Peroxidase (Av-HRP, cat no. 45210, Biolegend, USA) was diluted and added. Incubated at room temperature for 30 min. Plates were washed 3 times with PBS/Tween. Substrate was added, mix equal volumes of TMB Reagent A and B(cat no. 421101, Biolegend, USA) immediately prior to use. Plates were incubated at room temperature (4-30 min) for color development. Color reaction was stopped by adding 50 μl of stop solution. Optical density (OD) was read at 450 nm.
(§5) 1.2.3 Isotypes of antigen specific antibody: The plates were coated with diluted unlabeled capture antibody to a final concentration of 0.5-8 μg/ml. Plates were incubated at 4° C. overnight. They were then washed 3 times with PBS/Tween, and non-specific binding sites were blocked by adding 200 μl of blocking solution. Plates were incubated at room temperature for 1 h. Washing is done thrice, diluted standards and samples to desire concentrations in blocking solution were added to the plates. Incubate at room temperature for 2-4 h or at 4° C., overnight. Plates were washed 3 times with PBS/Tween. Detection antibodies were added 0.25-2 μg/ml in blocking buffer, followed by incubation at room temperature for 1 h. Plates were washed 3 times with PBS/Tween. Avidin-Horseradish Peroxidase (Av-HRP) was diluted and added. Incubated at room temperature for 30 min. Plates were washed 5 times with PBS/Tween. Substrate was added, mix equal volumes of TMB Reagent A and B immediately prior to use. Plates were incubated at room temperature (0.4-30 min) for color development. Color reaction was stopped by adding 50 μl of stop solution. Optical density (OD) was read at 450 nm.
IgG1 and IgG2a were measured by sandwich ELISA.

[7] = tested on: HBsAg antigen; assay: Antibody titre against HBsAg antigen (ELISA); assay type: in vivo, BALB/c mice; conditions: 28th day; for IgG titer: serum anti-HBsAg; for IgG1 titer / IgG 2a titer: serum, HBsAg immunized mice
Description: as §4, §5, §2
2.2.3 Antibody titre against HBsAg antigen: Antibody titer was determined by the same method as described in the Example 13 except that HBsAg antigen.
Antibody titres IgG, IgG1 and IgG2a were measured by sandwich ELISA.

[8] = tested on: cytokines IL-2, IL-12, IFN-γ, TNF-α, IL-10, IL-6; assay: Cytokine expression on immunization with HBsAg (ELISA); assay type: in vivo, BALB/c mice; conditions: HBsAg antigen
Description: (§6) 1.2.2 Cytokine expression on immunization: ELISA was carried out by Opti Elisa Kit (cat no. 560485, BD biosciences, USA). Briefly, 96-Well plates were coated with capture antibody dissolved in coating buffer. Wells were blocked with PBS containing 0.05% Tween-20 for 1h at RT. After blocking, 100 μL/well of supernatant was added and incubated for overnight at 4° C. After washing, biotinylated secondary antibody was added along with enzyme. Plates were incubated for 1h at RT. Then plates were washed and substrate solution was added. The reaction was stopped and the absorbance was measured at 450 nm in ELISA reader (BioTek-Elx800).
as §2
2.2.2 Cytokine expression on immunization: Cytokine expression was measured by the same method as described in the Example 13 except that HBsAg antigen.

[9] = tested on: cytokines IL-2, IL-12, IFN-γ, TNF-α, IL-10, IL-6; assay: Cytokine expression on immunization with OVA (ELISA); assay type: in vivo, BALB/c mice; conditions: OVA antigen
Description: as §3, §6

[10] = in vitro; assay type: cell-based; conditions: rat, NRK-49F rat kidney cells
Description: 2.2.6 In vitro cytotoxicity evaluation by MTT assay: Rat kidney cell line NRK-49F (NCCS, Pune) was exposed to varying doses of test compounds in the range of […], to determine the toxicity after 48 h of incubation. The colorimetric MTT assay was used to evaluate cell viability which is determined based on reduction of MTT to blue formazan crystals by the mitochondrial succinate dehydrogenase enzymes of viable cells.

CCCCCCCCCCCCCCCC(=O)N[C@@H](CSCC(COC(=O)CCCCCCCCCCCCCCC)OC(=O)CCCCCCCCCCCCCCC)C(=O)N[C@@H](CO)C(=O)N[C@@H](CCCCN)C(=O)N[C@@H](CCCCN)C(=O)N[C@@H](CCCCN)C(=O)N[C@@H](CCCCN)C(=O)O (stereo partly shown) [Standard (VacciGrade Pam3Cys) control] (Palmitoyl-C(X1)SKKKK-OH; N-terminus and C-terminus assumed)
% Hemolysis [1]: 2-5%
Splenocyte proliferation [2]: 250-500
Immunophenotyping (MFI) CD4 [3]: 1400-3000 MFI
Immunophenotyping (MFI) CD8 [3]: 2000-4000 MFI
Immunophenotyping (MFI) CD40 [3]: 1000-2500 MFI
Immunophenotyping (MFI) CD80 [3]: 1600-2500 MFI
Immunophenotyping (MFI) CD86 [3]: 1200-2000 MFI
TLR Ligand activity, SEAP Absorbance (655 nm) [4]: 1.2-2
Splenocyte proliferation [5]: 200-350
IgG titer [6]: 102400-819200
IgG1 titer [6]: 102400-1638400
IgG 2a titer [6]: 102400-3276800
IgG titer [7]: 204800-819200
IgG1 titer [7]: 102400-409600
IgG 2a titer [7]: 204800-3276800
Serum cytokines IFN-γ [8]: 250 to 325 pg/mL
Serum cytokines IL-2 [8]: 250 to 300 pg/mL
Serum cytokines IL-6 [8]: 250 to 295 pg/mL
Serum cytokines IL-10 [8]: 325 to 475 pg/mL
Serum cytokines IL-12 [8]: 150 to 250 pg/mL
Serum cytokines TNF-α [8]: 275 to 400 pg/mL
Serum cytokines IFN-γ [9]: 100 to 140 pg/mL
Serum cytokines IL-2 [9]: 100 to 150 pg/mL
Serum cytokines IL-6 [9]: 100 to 120 pg/mL
Serum cytokines IL-10 [9]: 180 to 220 pg/mL
Serum cytokines IL-12 [9]: 80 to 140 pg/mL
Serum cytokines TNF-α [9]: 150 to 200 pg/mL
viability at 48 h [10]: 95 to 100%

B1: OVA control: experimental weak antigen ovalbumin (cat no. A5503, Sigma-Aldrich) given alone as antigen control (protein, UniProt P01012 2-386, looked up)
Ovalbumin: GSIGAASMEFCFDVFKELKVHHANENIFYCPIAIMSALAMVYLGAKDSTRTQINKVVRFDKLPGFGDSIEAQCGTSVNVHSSLRDILNQITKPNDVYSFSLASRLYAEERYPILPEYLQCVKELYRGGLEPINFQTAADQARELINSWVESQTNGIIRNVLQPSSVDSQTAMVLVNAIVFKGLWEKAFKDEDTQAMPFRVTEQESKPVQMMYQIGLFRVASMASEKMKILELPFASGTMSMLVLLPDEVSGLEQLESIINFEKLTEWTSSNVMEERKIKVYLPRMKMEEKYNLTSVLMAMGITDVFSSSANLSGISSAESLKISQAVHAAHAEINEAGREVVGSAEAGVDAASVSEEFRADHPFLFCIKHIATNAVLFFGRCVSP
IgG titer [6]: 6400-12800
IgG1 titer [6]: 6400-25600
IgG 2a titer [6]: 6400-12800
IgG titer [7]: 12800-51200
IgG1 titer [7]: 12800-102400
IgG 2a titer [7]: 12800-51200
